Target: T1, LtgA (Neisseria meningitidis, UniProt Q9JXP1)
T1 construct: gene NMB1949; GST fusion from pGEX-4T1, GST cut by thrombin; E. coli BL21(DE3) Gold; 577 residues in model
T1 sequence (Q9JXP1 26-616): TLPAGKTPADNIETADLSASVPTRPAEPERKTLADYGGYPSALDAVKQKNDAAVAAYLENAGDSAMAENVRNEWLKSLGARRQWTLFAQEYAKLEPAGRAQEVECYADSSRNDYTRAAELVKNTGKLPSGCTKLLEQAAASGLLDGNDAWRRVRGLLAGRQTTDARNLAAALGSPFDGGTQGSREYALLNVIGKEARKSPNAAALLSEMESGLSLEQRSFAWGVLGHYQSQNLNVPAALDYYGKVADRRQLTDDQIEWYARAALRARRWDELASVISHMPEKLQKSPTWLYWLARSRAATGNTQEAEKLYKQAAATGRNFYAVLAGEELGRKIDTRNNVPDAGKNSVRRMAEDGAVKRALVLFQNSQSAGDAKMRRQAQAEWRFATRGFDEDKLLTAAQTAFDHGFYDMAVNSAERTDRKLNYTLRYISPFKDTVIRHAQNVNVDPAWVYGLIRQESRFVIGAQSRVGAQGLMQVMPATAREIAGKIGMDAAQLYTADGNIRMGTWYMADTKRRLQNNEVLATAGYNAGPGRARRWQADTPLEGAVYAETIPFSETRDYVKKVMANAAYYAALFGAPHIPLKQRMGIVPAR
Assay: RP-HPLC of muropeptides released from N. meningitidis peptidoglycan
Type: biochemical

## CC(=O)N[C@H]1[C@H](O[C@H]2C[C@@H](C(=O)NCCS(=O)(=O)O)N[C@@H]2CO)O[C@H](CO)[C@@H](OS(=O)(=O)O)[C@@H]1O [bulgecin A]
  inhibition at 90 µM: 66 ± 9.4%
